This assay concerns L1210 leukemia ip in BDF1 mice, survival T/C. Briefly: NCI In Vivo Anticancer Drug Screen. Data for tumor model L1210 Leukemia (intraperitoneal) in B6D2F1 (BDF1) mice. Particulars: endpoint: mean survival time, higher = longer survival. The method, boiled down:
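Mice bearing the transplanted tumor received compound or vehicle. Survival of the treated group was divided by that of the vehicle-treated control group to give the ratio.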

The mark [1] stands for this setting: dose: 100.0 mg/kg/injection, schedule: Q01DX009 (ip), vehicle: Klucel (hydroxypropylcellulose) (HPC).
Setting [2] is: dose: 200.0 mg/kg/injection, schedule: Q01DX009 (ip), vehicle: Klucel (hydroxypropylcellulose) (HPC).
Setting [3] is: dose: 400.0 mg/kg/injection, schedule: Q01DX009 (ip), vehicle: Klucel (hydroxypropylcellulose) (HPC).
The mark [4] stands for this setting: dose: 100.0 mg/kg/injection, schedule: Q04DX003 (ip), vehicle: Klucel (hydroxypropylcellulose) (HPC).
Where [5] appears, read: dose: 200.0 mg/kg/injection, schedule: Q04DX003 (ip), vehicle: Klucel (hydroxypropylcellulose) (HPC).
Where [6] appears, read: dose: 100.0 mg/kg/injection, schedule: Q04DX002 (ip), vehicle: saline with Tween-80.
The mark [7] stands for this setting: dose: 200.0 mg/kg/injection, schedule: Q04DX002 (ip), vehicle: saline with Tween-80.
[8] abbreviates: dose: 50.0 mg/kg/injection, schedule: Q04DX002 (ip), vehicle: saline with Tween-80.
Where [9] appears, read: dose: 100.0 mg/kg/injection, schedule: Q01DX001 (ip), vehicle: Klucel (hydroxypropylcellulose) (HPC).
Where [10] appears, read: dose: 200.0 mg/kg/injection, schedule: Q01DX001 (ip), vehicle: Klucel (hydroxypropylcellulose) (HPC).
[11] abbreviates: dose: 400.0 mg/kg/injection, schedule: Q01DX001 (ip), vehicle: Klucel (hydroxypropylcellulose) (HPC).

“And” between values parts separate entries of the source, which are not always exact repeats. Equal entries are not always repeated. Inconclusive results and toxic doses are left out.

As for `O/N=C(/CBr)c1ccccc1`, the T/C reads like this: (dose: 12.5 mg/kg/injection, schedule: Q04DX002 (ip), vehicle: gum acacia) 109 % of control; (dose: 25.0 mg/kg/injection, schedule: Q04DX002 (ip), vehicle: gum acacia) 87 % of control; (dose: 50.0 mg/kg/injection, schedule: Q04DX002 (ip), vehicle: gum acacia) 102 % of control.

Consider `CC(=O)OC1CCC2(C)C3CCC4(C)C(CC5OC54C(C)=O)C3CC3OC32C1` (configuration not stated), for which the T/C by setting is: (dose: 50.0 mg/kg/injection, schedule: Q01DX001 (sc), vehicle: steriod suspending solution) 97 % of control; (dose: 100.0 mg/kg/injection, schedule: Q01DX001 (sc), vehicle: steriod suspending solution) 101 % of control; (dose: 200.0 mg/kg/injection, schedule: Q01DX001 (sc), vehicle: steriod suspending solution) 106 % of control; (dose: 400.0 mg/kg/injection, schedule: Q01DX001 (sc), vehicle: steriod suspending solution) 113 % of control.

As for `O=C1NC(=O)c2cccc3cccc1c23`, the T/C (dose: 100.0 mg/kg/injection, schedule: Q01DX001 (ip), vehicle: saline with Tween-80) is 98 % of control; the T/C (dose: 200.0 mg/kg/injection, schedule: Q01DX001 (ip), vehicle: saline with Tween-80) is 102 % of control; the T/C (dose: 400.0 mg/kg/injection, schedule: Q01DX001 (ip), vehicle: saline with Tween-80) was 102 % of control.

Regarding `COc1ccc(NC(=O)Oc2ccc(NC(C)=O)cc2)c(OC)c1`, the T/C under setting [1] is 95 % of control, the T/C under setting [2] was 97 % of control and the T/C under setting [3] is 92 % of control.

In the case of `Cc1nc(N)sc1CCCl`, the T/C (dose: 36.0 mg/kg/injection, schedule: Q01DX015 (ip), vehicle: carboxymethylcellulose (CMC)) is 100 % of control and the T/C (dose: 54.0 mg/kg/injection, schedule: Q01DX015 (ip), vehicle: carboxymethylcellulose (CMC)) is 94 % of control.

As for `O=C1NCN(CCO)CN1`, the T/C by setting is: (dose: 100.0 mg/kg/injection, schedule: Q04DX003 (ip), vehicle: saline) 95 % of control; (dose: 200.0 mg/kg/injection, schedule: Q04DX003 (ip), vehicle: saline) 91 % of control; (dose: 400.0 mg/kg/injection, schedule: Q04DX003 (ip), vehicle: saline) 98 % of control.

Take `O=C(CNC(=O)Nc1cccc(Cl)c1Cl)N/N=C/c1cccc([N+](=O)[O-])c1`: the T/C is 90 % of control (dose: 50.0 mg/kg/injection, schedule: Q01DX009 (ip), vehicle: saline with Tween-80); 96 % of control (dose: 100.0 mg/kg/injection, schedule: Q01DX009 (ip), vehicle: saline with Tween-80); 90 % of control (dose: 200.0 mg/kg/injection, schedule: Q01DX009 (ip), vehicle: saline with Tween-80).

As for `COc1ccccc1-n1c(O)c(N=Nc2ccccc2)c(=O)n(-c2ccc(C)cc2)c1=S`, the T/C was 100 % of control (dose: 50.0 mg/kg/injection, schedule: Q04DX003 (ip), vehicle: Klucel (hydroxypropylcellulose) (HPC)); 98 % of control under setting [4]; 102 % of control under setting [5].

For the compound `C(=N\Nc1nc2ccccc2o1)/c1ccncc1`, the T/C by setting is: under setting [1], 95 % of control; under setting [2], 104 % of control; under setting [3], 104 % of control.

With `COC(=O)CNCc1ccccc1`, the T/C reads like this: (dose: 100.0 mg/kg/injection, schedule: Q01DX009 (ip), vehicle: water) 98 % of control; (dose: 200.0 mg/kg/injection, schedule: Q01DX009 (ip), vehicle: water) 115 % of control; (dose: 400.0 mg/kg/injection, schedule: Q01DX009 (ip), vehicle: water) 100 % of control.

`N=C(N)SCC(=O)c1ccc([N+](=O)[O-])cc1`: the T/C by setting is: under setting [6], 88 % of control; under setting [7], 95 % of control.

As for `OCC(O)C(O)C(O)/C=N\Nc1ccc(Br)cc1` (configuration not stated), the T/C under setting [8] is 93 % of control, the T/C under setting [6] is 95 % of control and the T/C under setting [7] was 87 % of control.

`O=N/N=c1/sc2ccccc2n1-c1ccccc1`: the T/C is 103 % of control under setting [9], 94 % of control under setting [10] and 100 % of control under setting [11].

In the case of `CCCC[N+](C)(CC(C)C)C1CCCCCCC1` (configuration not stated), the T/C runs as follows: (dose: 75.0 mg/kg/injection, schedule: Q01DX001 (ip), vehicle: carboxymethylcellulose (CMC)) 104 % of control; (dose: 75.0 mg/kg/injection, schedule: Q01DX001 (ip), vehicle: saline) 96 % of control; (dose: 150.0 mg/kg/injection, schedule: Q01DX001 (ip), vehicle: saline) 93 % of control.

`CCS/C(N)=N\N`: the T/C was 95 % of control (dose: 12.5 mg/kg/injection, schedule: Q01DX009 (ip), vehicle: saline); 98 % of control (dose: 25.0 mg/kg/injection, schedule: Q01DX009 (ip), vehicle: saline); 113 % of control (dose: 25.0 mg/kg/injection, schedule: Q04DX003 (ip), vehicle: saline); 104 % of control (dose: 50.0 mg/kg/injection, schedule: Q01DX009 (ip), vehicle: saline); 98 % of control (dose: 50.0 mg/kg/injection, schedule: Q04DX003 (ip), vehicle: saline).

For `O=C(O)/C=C/C(=O)Nc1ccccc1-n1cccc1`, the T/C runs as follows: (dose: 100.0 mg/kg/injection, schedule: Q01DX009 (ip), vehicle: saline) 106 % of control; (dose: 200.0 mg/kg/injection, schedule: Q01DX009 (ip), vehicle: saline) 97 % of control.

On to `Cc1ccc(C(C)(O)CC(O)(C(F)(F)F)C(F)(F)F)cc1` (configuration not stated), for which the T/C under setting [9] is 104 % of control; the T/C under setting [1] is 99 % of control; the T/C under setting [10] is 106 % of control; the T/C under setting [2] was 99 % of control; the T/C under setting [11] was 96 % of control; the T/C under setting [3] is 98 % of control.

For the compound `O=C(c1ccc(O)cc1)c1ccc(O)cc1O`, the T/C is, setting by setting: (dose: 100.0 mg/kg/injection, schedule: Q01DX009 (ip), vehicle: saline sonified) 93 % of control; (dose: 200.0 mg/kg/injection, schedule: Q01DX009 (ip), vehicle: saline sonified) 98 % of control; (dose: 400.0 mg/kg/injection, schedule: Q01DX009 (ip), vehicle: saline sonified) 98 % of control.

On to `CCOc1ccc(NC(=O)Nc2cccc(Cl)c2)cc1`, for which the T/C under setting [1] was 103 % of control; the T/C under setting [4] is 95 % of control; the T/C under setting [5] is 103 % of control; the T/C under setting [3] is 87 % of control; the T/C (dose: 400.0 mg/kg/injection, schedule: Q04DX003 (ip), vehicle: Klucel (hydroxypropylcellulose) (HPC)) was 100 % of control.

In the case of `O=C(Nc1cc([N+](=O)[O-])ccc1F)Oc1ccc(OCc2ccccc2)cc1`, the T/C by setting is: (dose: 100.0 mg/kg/injection, schedule: Q04DX002 (ip), vehicle: Klucel (hydroxypropylcellulose) (HPC)) 103 % of control; (dose: 200.0 mg/kg/injection, schedule: Q04DX002 (ip), vehicle: Klucel (hydroxypropylcellulose) (HPC)) 89 % of control; (dose: 400.0 mg/kg/injection, schedule: Q04DX002 (ip), vehicle: Klucel (hydroxypropylcellulose) (HPC)) 106 % of control.

With `Cc1ccc([N+](=O)[O-])cc1NC(=O)N(C1CCCCC1)C1CCCCC1`, the T/C was 95 % of control under setting [1], 97 % of control under setting [2] and 97 % of control under setting [3].

For `CCOC(=O)Nc1cc2c(c(N)n1)N=C(CN(C)c1ccc(Cl)cc1)CN2`, the T/C reads like this: under setting [9], 150 % of control and 165 % of control; (dose: 150.0 mg/kg/injection, schedule: Q01DX001 (ip), vehicle: Klucel (hydroxypropylcellulose) (HPC)) 93 % of control.

Take `Cl[C](Cl)(Cl)[Hg][c]1ccccc1`: the T/C is, setting by setting: (dose: 3.0 mg/kg/injection, schedule: Q01DX009 (ip), vehicle: Klucel (hydroxypropylcellulose) (HPC)) 88 % of control; (dose: 6.0 mg/kg/injection, schedule: Q01DX009 (ip), vehicle: Klucel (hydroxypropylcellulose) (HPC)) 92 % of control; (dose: 12.0 mg/kg/injection, schedule: Q01DX009 (ip), vehicle: Klucel (hydroxypropylcellulose) (HPC)) 90 % of control; (dose: 12.5 mg/kg/injection, schedule: Q01DX009 (ip), vehicle: Klucel (hydroxypropylcellulose) (HPC)) 110 % of control.

Regarding `O=C(/C=C/c1cccc(Cl)c1)c1ccccc1`, the T/C runs as follows: under setting [8], 108 % of control; under setting [6], 115 % of control; under setting [7], 97 % of control.

The values are drawn from PubChem BioAssay AID248 (DTP/NCI, 2004).
